Results published in PMC12655351, “Synthesis and Anticancer Activity Evaluation of New 5-((5-Nitrofuran-2-yl)allylidene)-2-thioxo-4-thiazolidinones” (Pharmaceuticals, 2025).

Assays:
[1] = system: AGS; experiment: MTT assay; type: cell-based; conditions: Homo sapiens, 24 h of treatment
How it was run: (§1)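 Cells were exposed to compounds at 0.625–40.0 μM (seven concentrations, triplicate) for 24 h, then incubated with MTT for 2 h at 37 °C. After lysis in acidic SDS/DMF buffer (pH 4.7), absorbance was read at 570 nm.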

[2] = system: DLD-1; experiment: MTT assay; type: cell-based; conditions: Homo sapiens; DLD-1, 24 h of treatment
How it was run: as §1

[3] = system: HCC-1954; experiment: MTT assay; type: cell-based; conditions: Homo sapiens, HCC1954; HCC-1954, 24 h of treatment
How it was run: as §1

[4] = system: HCT-116; experiment: MTT assay; type: cell-based; conditions: Homo sapiens; HCT-116, 24 h of treatment
How it was run: as §1

[5] = system: HT-29; experiment: MTT assay; type: cell-based; conditions: Homo sapiens; HT-29, 24 h of treatment
How it was run: as §1

[6] = system: Jurkat; experiment: MTT assay; type: cell-based; conditions: Homo sapiens, 24 h of treatment
How it was run: as §1

[7] = system: K562; experiment: MTT assay; type: cell-based; conditions: Homo sapiens; K562, 24 h of treatment
How it was run: as §1

[8] = system: MCF-7; experiment: MTT assay; type: cell-based; conditions: Homo sapiens, MCF7; MCF-7, 24 h of treatment
How it was run: as §1

[9] = system: MDA-MB-231; experiment: MTT assay; type: cell-based; conditions: Homo sapiens; MDA-MB-231, 24 h of treatment
How it was run: as §1

[10] = system: RPMI 8866; experiment: MTT assay; type: cell-based; conditions: Homo sapiens; RPMI 8866, 24 h of treatment
How it was run: as §1

[11] = system: SH SY5Y; experiment: MTT assay; type: cell-based; conditions: Homo sapiens, 24 h of treatment
How it was run: as §1

[12] = system: RPMI-8226; conditions: RPMI-8226, 48 h
[13] = system: SK-OV-3; conditions: SK-OV-3, 48 h
[14] = system: UO-31; conditions: UO-31, 48 h
[15] = system: DU-145; conditions: for TGI: DU-145, 48 h
[16] = system: HS 578T; conditions: 48 h
[17] = system: Melanoma; conditions: Melanoma subpanel
[18] = system: Renal Cancer; conditions: Renal Cancer subpanel
[19] = system: Breast cancer; conditions: Breast cancer subpanel
[20] = system: panel of 60 cancer cell lines; conditions: for Positive cytostatic effect (ratio of cell lines with GP from 0 to 50 to total number) / Mean growth: 10 μM, 48 h; for Mean growth: one dose; for MG_MID TGI: full panel (last line of Table S2)
[21] = system: SF-268; experiment: cells; conditions: Homo sapiens, SF-268, 48 h; for CC50: read-out: LC50, SF-268, 48 h
[22] = system: OVCAR-3; experiment: cells; conditions: Homo sapiens, OVCAR-3, 48 h
[23] = system: OVCAR-4; experiment: cells; conditions: Homo sapiens, OVCAR-4, 48 h; for CC50: read-out: LC50, OVCAR-4, 48 h
[24] = system: NCI/ADR-RES; experiment: cells; conditions: Homo sapiens, 48 h; for CC50: read-out: LC50, NCI/ADR-RES, 48 h
[25] = system: 786-0; experiment: cells; conditions: Homo sapiens, 786-0, 48 h
[26] = system: PC-3; experiment: cells; conditions: Homo sapiens, PC-3, 48 h
[27] = system: Renal Cancer; experiment: cells; conditions: Homo sapiens; for GI50: read-out: MG_MID GI50; for CC50: read-out: MG_MID LC50
[28] = system: HL-60(TB); experiment: NCI-60 SRB screen; conditions: for TGI / GI50: HL-60(TB), 48 h; for GI50 / CC50: Homo sapiens, HL-60, 48 h; for CC50: read-out: LC50, HL-60(TB), 48 h
[29] = system: A549/ATCC; experiment: NCI-60 SRB screen; conditions: for TGI: 48 h; for GI50: Homo sapiens, A549, 48 h
[30] = system: HOP-62; experiment: NCI-60 SRB screen; conditions: HOP-62, 48 h; for GI50: Homo sapiens
[31] = system: OVCAR-5; experiment: NCI-60 SRB screen; conditions: OVCAR-5, 48 h; for GI50: Homo sapiens
[32] = system: MDA-MB-468; experiment: NCI-60 SRB screen; conditions: MDA-MB-468, 48 h; for GI50 / CC50: Homo sapiens; for CC50: read-out: LC50, MDA-MB-468, 48 h

Work on `CC(C)C(C(=O)O)N1C(=O)/C(=C/C=C/c2ccc([N+](=O)[O-])o2)SC1=S` (stereo not shown) [5b, 3-Methyl-2-((Z)-5-((E)-3-(5-nitrofuran-2-yl)allylidene)-4-oxo-2-thioxothiazolidin-3-yl)butanoic acid] yielded an IC50 [1] of 2.65 µM, an IC50 [2] of 3.86 µM and an IC50 [3] of 6.42 µM. For the same molecule, the IC50 [4] was 4.21 µM, the IC50 [5] was 7.74 µM and the IC50 [6] was 3.73 µM. For the same molecule, the IC50 [7] was 16.1 µM, the IC50 [8] was 3.32 µM and the IC50 [9] was 9.12 µM. It also gave an IC50 [10] of 13.5 µM, an IC50 [11] of 9.37 µM and a TGI [12] of 1.49 µM. The TGI [13] was 10.7 µM, the TGI [14] was 3.11 µM and the “growth GP” value ([15]; DU-145, 10 μM, 48 h) was -98.94%. The TGI [15] was 2.82 µM, the TGI [16] was 7.56 µM and the “MG_MID TGI” value [17] was 2.68 µM. The “MG_MID TGI” value [18] was 3.27 µM, the “MG_MID TGI” value [19] was 3.46 µM and the “Positive cytostatic effect (ratio of cell lines with GP from 0 to 50 to total number)” value [20] was 2/55. The Mean growth [20] was -73.80%, the “MG_MID TGI” value [20] was 3.53 µM and the GI50 [21] was 1.61 µM. It also gave a CC50 [21] of 7.92 µM, a GI50 [22] of 1.34 µM and a GI50 [23] of 2.43 µM. It also gave a CC50 [23] of 26.3 µM, a GI50 [24] of 1.47 µM and a CC50 [24] of 17.5 µM. It also gave a GI50 [25] of 1.06 µM, a GI50 [26] of 1.8 µM and a GI50 [27] of 1.54 µM. It also gave a CC50 [27] of 7.72 µM, a TGI [28] of 3.87 µM and a GI50 [28] of 1.2 µM. For the same molecule, the CC50 [28] was over 100 µM, the TGI [29] was 3.83 µM and the GI50 [29] was 1.86 µM. It also gave a TGI [30] of 3.08 µM, a GI50 [30] of 1.35 µM and a GI50 [31] of 2.13 µM. It also gave a TGI [31] of 3.83 µM, a GI50 [32] of 1.37 µM and a CC50 [32] of 6.16 µM. The TGI [32] was 2.90 µM.

`CCCC(C(=O)O)N1C(=O)/C(=C/C=C/c2ccc([N+](=O)[O-])o2)SC1=S` (stereo not shown) [4b, 2-((Z)-5-((E)-3-(5-Nitrofuran-2-yl)allylidene)-4-oxo-2-thioxothiazolidin-3-yl)pentanoic acid] gave an IC50 [1] of 6.54 µM, an IC50 [2] of 7.61 µM and an IC50 [3] of 7.07 µM. It also gave an IC50 [4] of 7.89 µM, an IC50 [5] of 13.2 µM and an IC50 [6] of 5.85 µM. It also gave an IC50 [7] of 16.1 µM, an IC50 [8] of 5.87 µM and an IC50 [9] of 17.5 µM. For the same molecule, the IC50 [10] was 19.6 µM, the IC50 [11] was 16.3 µM and the TGI [12] was 5.11 µM. For the same molecule, the TGI [13] was 18.7 µM, the TGI [14] was 3.33 µM and the TGI [15] was 6.42 µM. The TGI [16] was 10.1 µM, the “MG_MID TGI” value [17] was 3.41 µM and the “MG_MID TGI” value [18] was 4.25 µM. For the same molecule, the “MG_MID TGI” value [19] was 5.00 µM, the “Positive cytostatic effect (ratio of cell lines with GP from 0 to 50 to total number)” value [20] was 4/55 and the Mean growth [20] was 36.52%. For the same molecule, the “MG_MID TGI” value [20] was 5.85 µM, the GI50 [21] was 2.04 µM and the CC50 [21] was 9.72 µM. For the same molecule, the GI50 [22] was 2.18 µM, the GI50 [23] was 6.03 µM and the CC50 [23] was 44.3 µM. The GI50 [24] was 2.03 µM, the CC50 [24] was 21.4 µM and the GI50 [25] was 3.71 µM. The GI50 [26] was 2.87 µM, the GI50 [27] was 2.25 µM and the CC50 [27] was 18.5 µM. It also gave a TGI [28] of 6.43 µM, a GI50 [28] of 2.17 µM and a CC50 [28] of over 100 µM. For the same molecule, the TGI [29] was 5.40 µM, the GI50 [29] was 2.22 µM and the TGI [30] was 5.43 µM. For the same molecule, the GI50 [30] was 2.23 µM, the GI50 [31] was 1.89 µM and the TGI [31] was 4.32 µM. For the same molecule, the GI50 [32] was 1.57 µM, the CC50 [32] was 5.92 µM and the TGI [32] was 3.05 µM.
